Assay results: US7932376B2, “Pyrimidine-based non-nucleotide composition and method for inhibiting platelet aggregation” (Inspire Pharmaceuticals, Inc., priority 2005, dated 2011)
Read-outs that look alike come from different tables or passages of the source.

Test system: ADP-induced aggregation of washed platelets
Assay: Inhibition of ADP-induced aggregation of washed platelets
Type: cell-based
Conditions: human washed platelets, light transmission aggregometry, 2 min pre-incubation with inhibitor before ADP, read-out: IC50 as inhibitors of ADP-induced aggregation of washed platelets
Description: Isolation of platelets: Human blood is obtained from informed healthy adult volunteers. Blood is collected into one-sixth volume of acid/citrate/dextrose (ACD) buffer (85 mM sodium citrate, 65 mM citric acid, and 110 mM glucose). Collected blood is placed in a water bath at 37° C. for 30 minutes. Blood is then centrifuged at 275×g for 16 minutes at room temperature and the platelet-rich plasma is removed and centrifuged at 2200×g for 13 minutes at room temperature. […]
Aggregation Studies: ADP-induced platelet aggregation is determined by measuring the transmission of light through a 0.5 ml suspension of stirred (1000 rpm) washed platelets in a lumi-aggregometer at 37° C. […] Platelet aggregation is initiated by the addition of indicated concentrations of ADP or other agonists, and the light transmission is continuously recorded for at least 8 min. When inhibitors of platelet aggregation are tested, platelets are incubated for 2 min in the presence of indicated concentrations of inhibitor before addition of ADP or other agonists, and the response is recorded for at least 8 min. The potency of agonists and inhibitors of platelet aggregation is calculated from both the rate of aggregation and the maximal extent of aggregation obtained for each determination by fitting the data to a four-parameter logistic equation using the GraphPad software package (GraphPad Corp. San Diego, Calif.). […]

SMILES	IC50 (Platelet)	IC50
CCNC(=O)Nc1ccn([C@@H]2O[C@H](COCc3ccccc3C(=O)O)C3O[C@H](/C=C/c4ccccc4)O[C@@H]32)c(=O)n1 (stereo partly drawn) [Compound 1, 2′,3′-trans-cinnamylacetal-5′-(2-carboxy)benzyloxy-6-N-ethylurea cytidine]	23.5 µM	–
CCNC(=O)Nc1ccn(C2OC(COCc3c(F)cccc3C(=O)O)C3OC(/C=C/c4ccccc4)OC32)c(=O)n1 (stereo not drawn) [Compound 2, 2′,3′-trans-cinnamylacetal-5′-(2-carboxy-6-fluoro)benzyloxy-6-N-ethylurea cytidine]	–	1.3 µM
